From patent publication US11532406B2, “High specific activity preparation of F-18 tetrafluoroborate” (Mayo Foundation for Medical Education and Research, priority 2016, dated 2022)
Several values for one entry are separate records, joined by “and”; a condition that tells them apart may be missing. Identical values can stand only once. Marks after values point to notes of the source that are not given here.

Assays:
[1] = Stability of ^18F-TFB (radio-TLC and anion chromatography HPLC); assay type: physicochemical
Method: The product ^18F-TFB was analyzed for radiochemical purity by both radio-TLC (MeOH, Rf=0.8-0.85) and anion chromatography HPLC with radioactivity detector (Dionex IC-2100, AS19 analytical column: 4.7×150 mm; eluent: 35 mM KOH; sample volume: 25.L; flow rate: 1 mL/min; retention times: 7.6 min for ^18F-TFB, […]). Chemical purity and specific activity were analyzed by anion chromatography HPLC (retention times: 3.5 min for fluoride, 4.3 min for chloride, and 7.6 min for BF4—). Residual organic solvents were analyzed by GC (helium carrier gas flow at 10 cc/min through a MXTWAX column (Restek, Bellefonte, Pa., 0.53 mm ID, 30 m length)).
After the synthesis, a sample was diluted with water for the analysis. With the eluent of methanol on silica gel plate, purities of >98% were obtained on the radio-TLC scanner.
^18F-TFB was prepared and formulated in sterile 0.9% NaCl under cGMP conditions as previously described (12). Decay-corrected radiochemical yields of 32±2% and radiochemical purities (RCPs) >98% were obtained. Specific radioactivity of 2.2±0.9 GBq/μmol was achieved from starting ^18F-fluoride radioactivity of 20-31 GBq. In vitro RCP remained >96% up to 8 h at room temperature.

[2] = Radiation dosimetry estimation (organ residence times, OLINDA); assay type: in vivo, human; details: for Residence Time, Bladder: bladder emptying model, 3.5 h voiding period; for Estimated absorbed radiation dose, Urinary Bladder Wall: bladder voiding interval of 3.5 h
Method: Radiation dosimetry estimates were calculated from organ residence times using OLINDA software (Ver. 1.1), assuming a bladder voiding interval of 3.5 h. Gender-specific organ masses for the conversion of SUV to disintegrations per organ per unit radioactivity administered (Bq-hr/Bq) were taken from Schlein et al. (15).
Bladder residence time was estimated by the bladder emptying model within the OLINDA software, assuming a 3.5 h bladder voiding period. The dose-critical organ is thyroid, with dose estimates of 0.26 and 0.36 mSv/MBq in males and females, respectively. […] Effective dose was higher in females (0.065 mSv/MBq) relative to males (0.036 mSv/MBq).

[3] = Measurements in venous blood and urine samples, HPLC metabolite analysis; assay type: in vivo, human; details: for Urine (% Dose), Accumulative: end of study (~250 min)
Method: Urine was collected after each PET/CT scan (approximately 55, 160, 250 min), and venous blood samples were collected at 40, 145 and 235 min, post-injection, as shown in FIG. 13. Blood samples (3-4 mL) were collected in heparinized tubes and placed on ice. The blood samples were centrifuged at 3000 g for 5 min to obtain plasma. Urine was measured for urine volume and radioactivity concentration as measured in a calibrated gamma counter. Analysis for metabolites in plasma and urine was performed by ion-chromatography HPLC, allowing estimation of the fraction of radioactivity as nonmetabolized ^18F-TFB.

HPLC analysis of the product sample, ^18F-TFB peak ([1]; after 20 h): chemically stable
radiochemical purity by radio-TLC after 20 h ([1]; after 20 h, sample diluted with water, silica gel, methanol): > 96%
In vitro RCP ([1]; up to 8 h at room temperature, in sterile 0.9% NaCl): > 96%
Effective Dose ([2]; females): 0.065 mSv/MBq and 0.064 mSv/MBq
Estimated absorbed radiation dose, Adrenals ([2]; females): 0.012 mSv/MBq
Estimated absorbed radiation dose, Brain ([2]; females): 0.005 mSv/MBq
Estimated absorbed radiation dose, Breasts ([2]; females): 0.028 mSv/MBq
Estimated absorbed radiation dose, Gallbladder Wall ([2]; females): 0.022 mSv/MBq
Estimated absorbed radiation dose, Heart Wall ([2]; females): 0.030 mSv/MBq
Estimated absorbed radiation dose, Kidneys ([2]; females): 0.052 mSv/MBq
Estimated absorbed radiation dose, Liver ([2]; females): 0.033 mSv/MBq
Estimated absorbed radiation dose, Lower Large Intestine Wall ([2]; females): 0.015 mSv/MBq
Estimated absorbed radiation dose, Lungs ([2]; females): 0.014 mSv/MBq
Estimated absorbed radiation dose, Muscle ([2]; females): 0.011 mSv/MBq
Estimated absorbed radiation dose, Osteogenic Cells ([2]; females): 0.009 mSv/MBq
Estimated absorbed radiation dose, Ovaries ([2]; females): 0.020 mSv/MBq
Estimated absorbed radiation dose, Pancreas ([2]; females): 0.043 mSv/MBq
Estimated absorbed radiation dose, Red Marrow ([2]; females): 0.008 mSv/MBq
Estimated absorbed radiation dose, Skin ([2]; females): 0.004 mSv/MBq
Estimated absorbed radiation dose, Small Intestine Wall ([2]; females): 0.066 mSv/MBq
Estimated absorbed radiation dose, Spleen ([2]; females): 0.047 mSv/MBq
Estimated absorbed radiation dose, Stomach Wall ([2]; females): 0.184 mSv/MBq
Estimated absorbed radiation dose, Thymus ([2]; females): 0.005 mSv/MBq
Estimated absorbed radiation dose, Thyroid ([2]; females): 0.36 mSv/MBq
Estimated absorbed radiation dose, Total Body ([2]; females): 0.011 mSv/MBq
Estimated absorbed radiation dose, Upper Large Intestine Wall ([2]; females): 0.109 mSv/MBq
Estimated absorbed radiation dose, Uterus ([2]; females): 0.022 mSv/MBq
Residence Time, Bone ([2]; females): 3.1 ± 0.3 min
Residence Time, Brain ([2]; females): 1.3 ± 0.2 min
Residence Time, Breast ([2]; females): 2.8 ± 0.9 min
Residence Time, Gallbladder ([2]; females): 0.09 ± 0.04 min
Residence Time, Intestines ([2]; females): 13 ± 7 min
Residence Time, Kidney ([2]; females): 3.9 ± 0.8 min
Residence Time, Liver ([2]; females): 10 ± 2 min
Residence Time, Lung ([2]; females): 2.4 ± 0.2 min
Residence Time, Muscle ([2]; females): 26 ± 8 min
Residence Time, Myocardium ([2]; females): 1.8 ± 0.3 min
Residence Time, Pancreas ([2]; females): 0.58 ± 0.08 min
Residence Time, Parotid ([2]; females): 3.3 ± 1.2 min
Residence Time, Spleen ([2]; females): 1.6 ± 0.2 min
Residence Time, Stomach ([2]; females): 24 ± 12 min
Residence Time, Thyroid ([2]; females): 2.3 ± 0.9 min
Residence Time, Bladder ([2]; females): 19 ± 4 min
Estimated absorbed radiation dose, Urinary Bladder Wall ([2]; females): 0.22 mSv/MBq
Effective Dose ([2]; males): 0.036 mSv/MBq
Estimated absorbed radiation dose, Adrenals ([2]; males): 0.008 mSv/MBq
Estimated absorbed radiation dose, Brain ([2]; males): 0.004 mSv/MBq
Estimated absorbed radiation dose, Breasts ([2]; males): 0.002 mSv/MBq
Estimated absorbed radiation dose, Gallbladder Wall ([2]; males): 0.012 mSv/MBq
Estimated absorbed radiation dose, Heart Wall ([2]; males): 0.024 mSv/MBq
Estimated absorbed radiation dose, Kidneys ([2]; males): 0.049 mSv/MBq
Estimated absorbed radiation dose, Liver ([2]; males): 0.021 mSv/MBq
Estimated absorbed radiation dose, Lower Large Intestine Wall ([2]; males): 0.009 mSv/MBq
Estimated absorbed radiation dose, Lungs ([2]; males): 0.009 mSv/MBq
Estimated absorbed radiation dose, Muscle ([2]; males): 0.008 mSv/MBq
Estimated absorbed radiation dose, Osteogenic Cells ([2]; males): 0.008 mSv/MBq
Estimated absorbed radiation dose, Pancreas ([2]; males): 0.034 mSv/MBq
Estimated absorbed radiation dose, Red Marrow ([2]; males): 0.005 mSv/MBq
Estimated absorbed radiation dose, Skin ([2]; males): 0.003 mSv/MBq
Estimated absorbed radiation dose, Small Intestine Wall ([2]; males): 0.027 mSv/MBq
Estimated absorbed radiation dose, Spleen ([2]; males): 0.033 mSv/MBq
Estimated absorbed radiation dose, Stomach Wall ([2]; males): 0.076 mSv/MBq
Estimated absorbed radiation dose, Testes ([2]; males): 0.005 mSv/MBq
Estimated absorbed radiation dose, Thymus ([2]; males): 0.004 mSv/MBq
Estimated absorbed radiation dose, Thyroid ([2]; males): 0.26 mSv/MBq
Estimated absorbed radiation dose, Total Body ([2]; males): 0.008 mSv/MBq
Estimated absorbed radiation dose, Upper Large Intestine Wall ([2]; males): 0.045 mSv/MBq
Residence Time, Bone ([2]; males): 4.6 ± 1.3 min
Residence Time, Brain ([2]; males): 1.2 ± 0.4 min
Residence Time, Gallbladder ([2]; males): 0.06 ± 0.03 min
Residence Time, Intestines ([2]; males): 5.7 ± 1.9 min
Residence Time, Kidney ([2]; males): 4.2 ± 1.2 min
Residence Time, Liver ([2]; males): 8.3 ± 3.9 min
Residence Time, Lung ([2]; males): 2.1 ± 0.7 min
Residence Time, Muscle ([2]; males): 36 ± 14 min
Residence Time, Myocardium ([2]; males): 2.1 ± 0.6 min
Residence Time, Pancreas ([2]; males): 0.7 ± 0.3 min
Residence Time, Parotid ([2]; males): 1.7 ± 1.1 min
Residence Time, Spleen ([2]; males): 1.5 ± 0.4 min
Residence Time, Stomach ([2]; males): 11 ± 5 min
Residence Time, Thyroid ([2]; males): 2.0 ± 0.7 min
Residence Time, Bladder ([2]; males): 17 ± 2 min
Estimated absorbed radiation dose, Urinary Bladder Wall ([2]; males): 0.14 mSv/MBq
% Intact ^18F-TFB, Plasma ([3]; females, 40 min): 97 ± 3^c %
Plasma (SUV) ([3]; females, 40 min): 3.8 ± 1.0 SUV
Whole blood (SUV) ([3]; females, 40 min): 3.1 ± 0.9 SUV
Urine (% Dose) ([3]; females, 40 min column (urine collected ~10 min later)): 16 ± 3 % Dose
% Intact ^18F-TFB, Urine ([3]; females, 40 min column (urine ~10 min later)): 98 ± 1%
Plasma (SUV) ([3]; females, 145 min): 2.1 ± 0.5 SUV
Whole blood (SUV) ([3]; females, 145 min): 1.7 ± 0.4 SUV
Urine (% Dose) ([3]; females, 145 min column (urine collected ~10 min later)): 18 ± 3^ % Dose
% Intact ^18F-TFB, Urine ([3]; females, 145 min column (urine ~10 min later)): 98 ± 1%
Plasma (SUV) ([3]; females, 235 min): 1.7 ± 0.5 SUV
Whole blood (SUV) ([3]; females, 235 min): 1.4 ± 0.4 SUV
Urine (% Dose) ([3]; females, 235 min column (urine collected ~10 min later)): 12 ± 2 % Dose
% Intact ^18F-TFB, Urine ([3]; females, 235 min column (urine ~10 min later)): 97 ± 2%
Urine (% Dose), Accumulative ([3]; females): 47±7 % Dose
% Intact ^18F-TFB, Plasma ([3]; males, 40 min): 97 ± 2%
Plasma (SUV) ([3]; males, 40 min): 3.8 ± 0.2 SUV
Whole blood (SUV) ([3]; males, 40 min): 3.0 ± 0.2 SUV
Urine (% Dose) ([3]; males, 40 min column (urine collected ~10 min later)): 15 ± 2^b % Dose
% Intact ^18F-TFB, Urine ([3]; males, 40 min column (urine ~10 min later)): 96 ± 2%
Plasma (SUV) ([3]; males, 145 min): 2.8 ± 0.3 SUV
Whole blood (SUV) ([3]; males, 145 min): 2.1 ± 0.2 SUV
Urine (% Dose) ([3]; males, 145 min column (urine collected ~10 min later)): 13 ± 3 % Dose
% Intact ^18F-TFB, Urine ([3]; males, 145 min column (urine ~10 min later)): 97 ± 2%
Plasma (SUV) ([3]; males, 235 min): 2.0 ± 0.1 SUV
Whole blood (SUV) ([3]; males, 235 min): 1.7 ± 0.2 SUV
Urine (% Dose) ([3]; males, 235 min column (urine collected ~10 min later)): 10 ± 2^b % Dose
% Intact ^18F-TFB, Urine ([3]; males, 235 min column (urine ~10 min later)): 98 ± 1%
Urine (% Dose), Accumulative ([3]; males): 40±4 % Dose and 40 ± 4^b % Dose
^18F-labeled metabolites in blood and urine (HPLC) ([3]; over the length of the study (4 h)): insignificant
radioactivity as metabolically intact ^18F-TFB in plasma ([3]; plasma samples at 40 min p.i.): > 97%
Structure (SMILES): F[B-](F)(F)[18F] [^18F-TFB, ^18F-tetrafluoroborate]
